Data published in patent publication US4282236A, “β-Lactam antibacterial agents, their use in pharmaceutical compositions, and intermediates” (Beecham Group Limited, priority 1979, dated 1981).

Tests used:
Type in all cases: cell-based
Proteus mirabilis C977 [1] = test: MIC, microtitre using nutrient broth; conditions: read-out: minimum inhibitory concentration (MIC)
Protocol: (§1) The penem ester (21) (30 mg) was dissolved in a mixture of dioxane (4 ml) and water (1 ml) and hydrogenated over 5% palladium on charcoal catalyst (45 mg) for one hour. A further amount of catalyst (30 mg) was added and the hydrogenation was continued for a further one and a half hours. A 1% solution of sodium bicarbonate (0.6 ml) was added and the mixture filtered through Kieselguhr. The mixture was evaporated to low volume, water (10 ml) was added, and the aqueous solution washed with a little ethyl acetate. Evaporation of the aqueous phase afforded the sodium salt (22) (17 mg) as an amorphous solid. λmax. (EtOH) 364 n.m.
(§2) 2. Microtitre using nutrient
(§3) lution for G.div.ve bacteria or
(§4) broth a 10^- 4 dilution for G-ve
(§5) Minimum Inhibitory Concentrations are expressed in microgrammes per ml.

Pseudomonas aeruginosa A [2] = test: MIC, microtitre using nutrient broth; conditions: read-out: minimum inhibitory concentration (MIC)
Protocol: as §1, §2, §3, §4, §5

[3] = system: Staphylococcus aureus Russell; test: MIC, microtitre using nutrient broth; conditions: read-out: minimum inhibitory concentration (MIC)
Protocol: as §1, §2, §3, §4, §5

Escherichia coli 0111 [4] = test: MIC, microtitre using nutrient broth; conditions: read-out: minimum inhibitory concentration (MIC)
Protocol: as §1, §2, §3, §4, §5

[5] = system: Salmonella typhimurium CT10; test: MIC, microtitre using nutrient broth; conditions: Salmonella enterica, read-out: minimum inhibitory concentration (MIC)
Protocol: as §1, §2, §3, §4, §5

Klebsiella aerogenes A [6] = test: MIC, microtitre using nutrient broth; conditions: read-out: minimum inhibitory concentration (MIC)
Protocol: as §1, §2, §3, §4, §5

Escherichia coli JT 39 [7] = test: MIC, microtitre using nutrient broth; conditions: JT39, read-out: minimum inhibitory concentration (MIC)
Protocol: as §1, §2, §3, §4, §5

[8] = system: Staphylococcus aureus Oxford; test: MIC, microtitre using nutrient broth; conditions: read-out: minimum inhibitory concentration (MIC)
Protocol: as §1, §2, §3, §4, §5

Enterobacter cloacae N1 = test: MIC, DST agar + 10% horse blood; conditions: read-out: minimum inhibitory concentration (MIC)
Protocol: as §1
(§6) 1. DST agar + 10% horse blood
as §3, §5

Serratia marcescens US20 = test: MIC, DST agar + 10% horse blood; conditions: read-out: minimum inhibitory concentration (MIC)
Protocol: as §1, §6, §3, §5

Proteus mirabilis C977 [9] = test: MIC, DST agar + 10% horse blood; conditions: read-out: minimum inhibitory concentration (MIC)
Protocol: as §1, §6, §3, §5

Pseudomonas aeruginosa A [10] = test: MIC, DST agar + 10% horse blood; conditions: read-out: minimum inhibitory concentration (MIC)
Protocol: as §1, §6, §3, §5

Citrobacter freundii E8 = test: MIC, DST agar + 10% horse blood; conditions: read-out: minimum inhibitory concentration (MIC)
Protocol: as §1, §6, §3, §5

[11] = system: Streptococcus pyogenes CN10; test: MIC, DST agar + 10% horse blood; conditions: read-out: minimum inhibitory concentration (MIC)
Protocol: as §1, §6, §3, §5

[12] = system: Staphylococcus aureus Russell; test: MIC, DST agar + 10% horse blood; conditions: read-out: minimum inhibitory concentration (MIC)
Protocol: as §1, §6, §3, §5

[13] = system: Streptococcus pneumoniae CN33; test: MIC, DST agar + 10% horse blood; conditions: read-out: minimum inhibitory concentration (MIC)
Protocol: as §1, §6, §3, §5

Proteus morganii I580 = test: MIC, DST agar + 10% horse blood; conditions: Morganella morganii, read-out: minimum inhibitory concentration (MIC)
Protocol: as §1, §6, §3, §5

Bacillus subtilis A = test: MIC, DST agar + 10% horse blood; conditions: read-out: minimum inhibitory concentration (MIC)
Protocol: as §1, §6, §3, §5

Escherichia coli 0111 [14] = test: MIC, DST agar + 10% horse blood; conditions: read-out: minimum inhibitory concentration (MIC)
Protocol: as §1, §6, §3, §5

Proteus vulgaris W091 = test: MIC, DST agar + 10% horse blood; conditions: read-out: minimum inhibitory concentration (MIC)
Protocol: as §1, §6, §3, §5

Shigella sonnei MB 11967 = test: MIC, DST agar + 10% horse blood; conditions: MB11967, read-out: minimum inhibitory concentration (MIC)
Protocol: as §1, §6, §3, §5

Proteus rettgeri WM16 = test: MIC, DST agar + 10% horse blood; conditions: Providencia rettgeri, read-out: minimum inhibitory concentration (MIC)
Protocol: as §1, §6, §3, §5

[15] = system: Staphylococcus aureus 1517; test: MIC, DST agar + 10% horse blood; conditions: read-out: minimum inhibitory concentration (MIC)
Protocol: as §1, §6, §3, §5

[16] = system: Salmonella typhimurium CT10; test: MIC, DST agar + 10% horse blood; conditions: Salmonella enterica, read-out: minimum inhibitory concentration (MIC)
Protocol: as §1, §6, §3, §5

Klebsiella aerogenes A [17] = test: MIC, DST agar + 10% horse blood; conditions: read-out: minimum inhibitory concentration (MIC)
Protocol: as §1, §6, §3, §5

E. coli ESS = test: MIC, DST agar + 10% horse blood; conditions: Escherichia coli, read-out: minimum inhibitory concentration (MIC)
Protocol: as §1, §6, §3, §5

Escherichia coli JT 39 [18] = test: MIC, DST agar + 10% horse blood; conditions: JT39, read-out: minimum inhibitory concentration (MIC)
Protocol: as §1, §6, §3, §5

[19] = system: Staphylococcus aureus Oxford; test: MIC, DST agar + 10% horse blood; conditions: read-out: minimum inhibitory concentration (MIC)
Protocol: as §1, §6, §3, §5

COC(=O)/C=C/C1=C(C(=O)O)N2C(=O)C[C@H]2S1 [compound 22, Sodium 2-(trans-2-Carbomethoxy-vinyl) penem-3-carboxylate]
MIC (Proteus mirabilis C977 [1]): 125 µg/mL | MIC (Pseudomonas aeruginosa A [2]): > 500 µg/mL | MIC [3]: 16 µg/mL | MIC (Escherichia coli 0111 [4]): 62 µg/mL | MIC [5]: 125 µg/mL | MIC (Klebsiella aerogenes A [6]): 31 µg/mL | MIC (Escherichia coli JT 39 [7]): 250 µg/mL | MIC [8]: 8 µg/mL | MIC (Enterobacter cloacae N1): 50 µg/mL | MIC (Serratia marcescens US20): 50 µg/mL | MIC (Proteus mirabilis C977 [9]): 25 µg/mL | MIC (Pseudomonas aeruginosa A [10]): > 100 µg/mL | MIC (Citrobacter freundii E8): 25 µg/mL | MIC [11]: 2.5 µg/mL | MIC [12]: 10 µg/mL | MIC [13]: 0.5 µg/mL | MIC (Proteus morganii I580): 50 µg/mL | MIC (Bacillus subtilis A): 5 µg/mL | MIC (Escherichia coli 0111 [14]): 25 µg/mL | MIC (Proteus vulgaris W091): 50 µg/mL | MIC (Shigella sonnei MB 11967): 100 µg/mL | MIC (Proteus rettgeri WM16): 50 µg/mL | MIC [15]: 50 µg/mL | MIC [16]: 50 µg/mL | MIC (Klebsiella aerogenes A [17]): 25 µg/mL | MIC (E. coli ESS): 25 µg/mL | MIC (Escherichia coli JT 39 [18]): 100 µg/mL | MIC [19]: 5 µg/mL
